According to patent US9187450B2, “Substituted pyridine compound” (Daiichi Sankyo Company, Limited, priority 2010, dated 2015):

Target: recombinant human CETP protein (Homo sapiens (Human), UniProt P11597)
Experiment: Test of CETP inhibition activity (in vitro, buffer-based)
Assay type: biochemical
Settings: reconstituted HDL with [14C]-labeled cholesteryl ester, acceptor lipoprotein, 37° C.
Experimental: Test of CETP Inhibition Activity (In Vitro, Buffer-Based)
(1) Preparation of Reconstituted HDL
Cholesterol (1.125 μmol), phosphatidyl choline (4.5 μmol) and [^14C]-labeled cholesteryl ester (2.0 μCi; 40 μl) were taken in a glass test tube and well mixed with a vortex, and dried under a nitrogen gas current so that it formed a thin film. The obtained mixture was dissolved in ethanol (200 μl), which was designated as Solution A. A PBS solution [a mixed solution of Na2HPO4 (30 mM), KH2PO4 (8.8 mM), NaCl (60 mM) and EDTA (pH 7.4; 0.67 mM); 4 ml] was taken in a tube and the reaction solution was vigorously stirred with a vortex under a nitrogen current. The above-described Solution A was gently injected into this mixture with a syringe and the reaction solution was vigorously stirred with a vortex for 5 minutes under a nitrogen current. Sodium cholate ([…]; 0.38 ml) was added to the obtained mixture and the reaction solution was stirred for 2 minutes. ApoA-I protein (3 mg) was added to the obtained mixture and the reaction solution was stirred for 2 minutes. The obtained mixture was adjusted to 5 ml with the PBS solution and then dialyzed with the PBS solution. The obtained mixture was designated as the reconstituted HDL.
(2) Preparation of Acceptor Lipoprotein
NaBr was added to the plasma of a healthy person and the density of the mixture was adjusted to 1.019, and the mixture was subjected to density gradient centrifugation (40000 rpm, for 16 hours) to remove the fraction having a density of less than 1.019. NaBr was added to the obtained mixture and the density of the solution was adjusted to 1.063, and the solution was subjected to density gradient centrifugation (40000 rpm, 18 hours) to provide the fraction consisting of IDL (intermediate density lipoprotein) and LDL (1.019<density<1.063). The obtained fraction was dialyzed with the PBS solution. The obtained mixture was designated as the acceptor lipoprotein.
(3) Measurement of CETP Inhibition Activity
A recombinant human CETP protein (manufactured by Roar Biomedical Inc.; 4.5 ng), the acceptor lipoprotein described in (2) above (32.5 μg) and 5,5′-dithio-bis-(2-nitrobenzoic acid) (7 mM, 15 μl) were taken in a 96 well plate and the total amount of the mixture was adjusted to 48.5 μl with the PBS solution. The test compound [DMSO solution (concentration: 0.15, 0.5, 1.5, 5, 15, 50, 150 and 500 μM; 1.5 μl] was added to each well and the mixture was incubated in a thermostatic bath at 37° C. for 60 minutes. The reconstituted HDL (50 μl) described in (1) above was added to each well and the mixture was reacted in a thermostatic bath at 37° C. for 60 minutes. The 96 well plate was moved onto ice and a precipitation reagent [a mixed solution of magnesium chloride (60 mM) and 0.1% dextran sulfate [1/1 (v/v)]; 15 μl] was added to each well, and then the mixture was allowed to stand on ice for 15 minutes. The reaction solution (80 μl) in each well was moved to a filter plate and centrifuged at 1500 rpm for 1 minute, and the filtrate which passed through the filter was designated as the HDL fraction and the radioactivity thereof was measured with a scintillation counter. The percentage decrease in radioactivity in the case where the test compound was added in comparison with that in case where the test compound was not added was designated as the percentage CETP inhibition. The IC50 value was calculated from the percentage CETP inhibition.

recombinant human CETP protein, sequence (P11597 18-493): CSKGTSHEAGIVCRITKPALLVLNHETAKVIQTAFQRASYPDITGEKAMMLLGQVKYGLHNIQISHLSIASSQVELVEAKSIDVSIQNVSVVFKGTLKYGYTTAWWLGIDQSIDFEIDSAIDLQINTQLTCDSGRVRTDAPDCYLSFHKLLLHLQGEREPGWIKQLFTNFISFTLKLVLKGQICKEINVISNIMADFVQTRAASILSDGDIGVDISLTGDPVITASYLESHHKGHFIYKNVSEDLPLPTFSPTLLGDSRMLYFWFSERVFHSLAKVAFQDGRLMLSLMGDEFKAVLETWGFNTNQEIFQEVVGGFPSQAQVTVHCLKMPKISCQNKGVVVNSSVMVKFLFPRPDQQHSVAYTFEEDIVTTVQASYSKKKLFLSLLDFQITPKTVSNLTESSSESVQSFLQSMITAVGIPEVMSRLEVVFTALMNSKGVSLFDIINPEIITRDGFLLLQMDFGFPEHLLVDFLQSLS

SMILES	IC50 [nM]
CNC(=O)c1cnc(N2CCC(c3nc4c(c(C5CCC(F)(F)CC5)c3[C@@H](F)c3ccc(C(F)(F)F)cc3)[C@@H](O)CC(C)(C)C4)CC2)nc1 (single isomer, unassigned) [Example 30, 4-(4,4-Difluorocyclohexyl)-3-{fluoro[4-(trifluoromethyl)phenyl]methyl}-7,7-dimethyl-2-{1-[5-(methylcarbamoyl)pyrimidin-2-yl]piperidin-4-yl}-5,6,7,8-tetrahydroquinolin-5-ol]	32
CC1(C)Cc2nc(C3CCN(c4ncc(OCCC(F)(F)F)cn4)CC3)c([C@@H](F)c3ccc(C(F)(F)F)cc3)c(C3CCC(F)(F)CC3)c2[C@@H](O)C1 (single isomer, unassigned) [Example 47, (−)-4-(4,4-Difluorocyclohexyl)-3-{fluoro[4-(trifluoromethyl)phenyl]methyl}-7,7-dimethyl-2-{1-[5-(3,3,3-trifluoropropoxyl)pyrimidin-2-yl]piperidin-4-yl}-5,6,7,8-tetrahydroquinolin-5-ol]	31
CC(C)(O)CCOc1cnc(N2CCC(c3nc4c(c(C5CCC(F)(F)CC5)c3[C@@H](F)c3ccc(C(F)(F)F)cc3)[C@@H](O)CC(C)(C)C4)CC2)nc1 (single isomer, unassigned) [Example 43, (−)-4-(4,4-Difluorocyclohexyl)-3-{fluoro[4-(trifluoromethyl)phenyl]methyl}-2-{1-[5-(3-hydroxy-3-methylbutoxy)pyrimidin-2-yl]piperidin-4-yl}-7,7-dimethyl-5,6,7,8-tetrahydroquinolin-5-ol]	9
C[C@@H](O)COc1cnc(N2CCC(c3nc4c(c(C5CCC(F)(F)CC5)c3[C@@H](F)c3ccc(C(F)(F)F)cc3)[C@@H](O)CC(C)(C)C4)CC2)nc1 (single isomer, unassigned) [Example 42]	22
CC(C)COc1cnc(N2CCC(c3nc4c(c(C5CCC(F)(F)CC5)c3[C@@H](F)c3ccc(C(F)(F)F)cc3)[C@@H](O)CC(C)(C)C4)CC2)nc1 (single isomer, unassigned) [Example 21, (−)-4-(4,4-difluorocyclohexyl)-3-{fluoro[4-(trifluoromethyl)phenyl]methyl}-7,7-dimethyl-2-{1-[5-(2-methylpropoxy)pyrimidine-2-yl]piperidin-4-yl}-5,6,7,8-tetrahydroquinoline-5-ol]	99
CC(C)S(=O)(=O)N(C)Cc1cnc(N2CCC(c3nc4c(c(C5CCC(F)(F)CC5)c3[C@@H](F)c3ccc(C(F)(F)F)cc3)[C@@H](O)CC(C)(C)C4)CC2)nc1 (single isomer, unassigned) [Example 52, 4-(4,4-Difluorocyclohexyl)-3-{fluoro[4-(trifluoromethyl)phenyl]methyl}-7,7-dimethyl-2-[1-(5-{[methyl(propan-2-ylsulfonyl)amino]methyl}pyrimidin-2-yl)piperidin-4-yl]-5,6,7,8-tetrahydroquinolin-5-ol]	6
CC(C)Oc1cnc(N2CCC(c3nc4c(c(C5CCC(F)(F)CC5)c3[C@@H](F)c3ccc(C(F)(F)F)cc3)[C@@H](O)CC(C)(C)C4)CC2)nc1 (single isomer, unassigned) [Example 14, (−)-4-(4,4-Difluorocyclohexyl)-3-{fluoro[4-(trifluoromethyl)phenyl]methyl}-7,7-dimethyl-2-{1-[5-(propan-2-yloxy)pyrimidin-2-yl]piperidin-4-yl}-5,6,7,8-tetrahydroquinolin-5-ol]	97
CC1(C)Cc2nc(C3CCN(c4ncc(OC[C@@H](O)CO)cn4)CC3)c([C@@H](F)c3ccc(C(F)(F)F)cc3)c(C3CCC(F)(F)CC3)c2[C@@H](O)C1 [Example 39, (−)-4-(4,4-Difluorocyclohexyl)-2-[1-(5-{[(2S)-2,3-dihydroxypropyl]oxy}pyrimidin-2-yl)piperidin-4-yl]-3-{fluoro[4-(trifluoromethyl)phenyl]methyl}-7,7-dimethyl-5,6,7,8-tetrahydroquinolin-5-ol]	32
CC1(C)Cc2nc(C3CCN(c4ncc(N5CCSCC5)cn4)CC3)c([C@@H](F)c3ccc(C(F)(F)F)cc3)c(C3CCC(F)(F)CC3)c2[C@@H](O)C1 (single isomer, unassigned) [Example 9, (−)-4-(4,4-Difluorocyclohexyl)-3-{fluoro[4-(trifluoromethyl)phenyl]methyl}-7,7-dimethyl-2-{1-[5-(thiomorpholin-4-yl)pyrimidin-2-yl]piperidin-4-yl}-5,6,7,8-tetrahydroquinolin-5-ol]	122
CC1(C)Cc2nc(C3CCN(c4ncc(CO)cn4)CC3)c([C@@H](F)c3ccc(C(F)(F)F)cc3)c(C3CCC(F)(F)CC3)c2[C@@H](O)C1 [Example 20, (−)-4-(4,4-Difluorocyclohexyl)-3-{fluoro[4-(trifluoromethyl)phenyl]methyl}-2-[1-[5-(hydroxymethyl)pyrimidin-2-yl]piperidin-4-yl]-7,7-dimethyl-5,6,7,8-tetrahydroquinolin-5-ol]	255
CC1(C)Cc2nc(C3CCN(c4ncc(OC(F)F)cn4)CC3)c([C@@H](F)c3ccc(C(F)(F)F)cc3)c(C3CCC(F)(F)CC3)c2[C@@H](O)C1 (single isomer, unassigned) [Example 48, (−)-4-(4,4-Difluorocyclohexyl)-2-{1-[5-(difluoromethoxy)pyrimidin-2-yl]piperidin-4-yl}-3-{fluoro[4-(trifluoromethyl)phenyl]methyl}-7,7-dimethyl-5,6,7,8-tetrahydroquinolin-5-ol]	42
CC(C)OCc1cnc(N2CCC(c3nc4c(c(C5CCC(F)(F)CC5)c3[C@@H](F)c3ccc(C(F)(F)F)cc3)[C@@H](O)CC(C)(C)C4)CC2)nc1 (single isomer, unassigned) [Example 28, (−)-4-(4,4-difluorocyclohexyl)-3-{fluoro[4-(trifluoromethyl)phenyl]methyl}-7,7-dimethyl-2-(1-{5-[(propan-2-yloxy)methyl]pyrimidine-2-yl}piperidin-4-yl)-5,6,7,8-tetrahydroquinoline-5-ol]	78
C[C@H](O)COc1cnc(N2CCC(c3nc4c(c(C5CCC(F)(F)CC5)c3[C@@H](F)c3ccc(C(F)(F)F)cc3)[C@@H](O)CC(C)(C)C4)CC2)nc1 [Example 37, (−)-4-(4,4-Difluorocyclohexyl)-3-{fluoro[4-(trifluoromethyl)phenyl]methyl}-2-[1-(5-{[(2S)-2-hydroxypropyl]oxy}pyrimidin-2-yl)piperidin-4-yl]-7,7-dimethyl-5,6,7,8-tetrahydroquinolin-5-ol]	25
CC1(C)Cc2nc(C3CCN(c4ncc(OCCCO)cn4)CC3)c([C@@H](F)c3ccc(C(F)(F)F)cc3)c(C3CCC(F)(F)CC3)c2[C@@H](O)C1 [Example 46, (−)-4-(4,4-Difluorocyclohexyl)-3-{fluoro[4-(trifluoromethyl)phenyl]methyl}-2-{1-[5-(3-hydroxypropoxy)pyrimidin-2-yl]piperidin-4-yl}-7,7-dimethyl-5,6,7,8-tetrahydroquinolin-5-ol]	16
CC1(C)Cc2nc(C3CCN(c4ncc(OCC(CO)CO)cn4)CC3)c([C@@H](F)c3ccc(C(F)(F)F)cc3)c(C3CCC(F)(F)CC3)c2[C@@H](O)C1 (single isomer, unassigned) [Example 49, (−)-4-(4,4-Difluorocyclohexyl)-3-{fluoro[4-(trifluoromethyl)phenyl]methyl}-2-(1-{5-[3-hydroxy-2-(hydroxymethyl)propoxy]pyrimidin-2-yl}piperidin-4-yl)-7,7-dimethyl-5,6,7,8-tetrahydroquinolin-5-ol]	8
CN1CCC(Oc2cnc(N3CCC(c4nc5c(c(C6CCC(F)(F)CC6)c4[C@@H](F)c4ccc(C(F)(F)F)cc4)[C@@H](O)CC(C)(C)C5)CC3)nc2)CC1 (single isomer, unassigned) [Example 38, 4-(4,4-Difluorocyclohexyl)-3-{fluoro[4-(trifluoromethyl)phenyl]methyl}-7,7-dimethyl-2-(1-{5-[(1-methylpiperidin-4-yl)oxy]pyrimidin-2-yl}piperidin-4-yl)-5,6,7,8-tetrahydroquinolin-5-ol]	10
